Assays:
Assay type in all cases: in vivo
[1] = test system: kochia (Kochia scoparia); experiment: Test A preemergence, kochia; conditions: 0 to 100 scale
Description: (§1) Seeds of plant species selected from bamyardgrass (Echinochloa crus-galli), kochia (Kochia scoparia), ragweed (common ragweed, Ambrosia elatior), ryegrass, Italian (Italian ryegrass, Lolium multiflorum), foxtail, giant (giant foxtail, Setaria faberii), pigweed (Amaranthus retroflexus), crabgrass, large (large crabgrass, Digitaria sanguinalis), momingglory (Ipomoea spp.), velvetleaf (Abutilon theophrasti), wheat (Triticum aestivum), and corn (Zea mays) were planted into a blend of loam soil and sand and treated preemergence with a directed soil spray using test chemicals formulated in a non-phytotoxic solvent mixture which included a surfactant. At the same time, plants selected from these crop and weed species and also blackgrass (Alopecurus myosuroides), and galium (catchweed bedstraw, Galium aparine) were planted in pots containing the same blend of loam soil and sand and treated with postemergence applications of test chemicals formulated in the same manner. Plants ranged in height from 2 to 10 cm and were in the one- to two-leaf stage for the postemergence treatment. Treated plants and untreated controls were maintained in a greenhouse for approximately 10 days, after which time all treated plants were compared to untreated controls and visually evaluated for injury. Plant response ratings, summarized in Table A, are based on a 0 to 100 scale where 0 is no effect and 100 is complete control. A dash (-) response means no test result.

[2] = test system: blackgrass (Alopecurus myosuroides); experiment: Test A postemergence, blackgrass; conditions: 0 to 100 scale
Description: as §1

[3] = test system: kochia (Kochia scoparia); experiment: Test A postemergence, kochia; conditions: 0 to 100 scale
Description: as §1

[4] = test system: foxtail, giant (giant foxtail, Setaria faberii); experiment: Test A preemergence, foxtail, giant; conditions: 0 to 100 scale
Summary of the method: (§2)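 Greenhouse pot test, loam + sand. Preemergence = soil spray at sowing; postemergence = foliar spray, 1–2 leaf stage, 2–10 cm tall. ~10 d, then visual injury vs untreated, 0–100.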

[5] = test system: barnyardgrass (Echinochloa crus-galli); experiment: Test A preemergence, barnyardgrass; conditions: 0 to 100 scale
Summary of the method: as §2

[6] = test system: chickweed (common chickweed, Stellaria media); experiment: Test C postemergence, chickweed
Description: (§3) Seeds of plant species selected from blackgrass (Alopecurus myosuroides), ryegrass, Italian (Italian ryegrass, Lolium multiflorum), wheat (winter wheat, Triticum aestivum), galium (catchweed bedstraw, Galium aparine), corn (Zea mays), crabgrass, large (large crabgrass, Digitaria sanguinalis), foxtail, giant (giant foxtail, Setaria faberii), lambsquarters (Chenopodium album), morningglory (Ipomoea coccinea), nutsedge, yellow (yellow nutsedge, Cyperus esculentus), pigweed (Amaranthus retroflexus), johnsongrass (Sorghum halepense), ragweed (common ragweed, Ambrosia elatior), soybean (Glycine max), barnyardgrass (Echinochloa crus-galli), oilseed rape (Brassica napus), waterhemp (common waterhemp, Amaranthus rudis), chickweed (common chickweed, Stellaria media), oat, wild (wild oat, Avena fatua), kochia (Kochia scoparia), and velvetleaf (Abutilon theophrasti) were planted in pots containing Redi-Earth® planting medium (Scotts Company, 14111 Scottslawn Road, Marysville, Ohio 43041) comprising spaghnum peat moss, vermiculite, wetting agent and starter nutrients and treated with postemergence applications of a test chemical formulated in a non-phytotoxic solvent mixture which included a surfactant. Plants ranged in height from 2 to 18 cm (1- to 4-leaf stage) for postemergence treatments. Treated plants and controls were maintained in a greenhouse for 13 to 15 days, after which time all species were compared to controls and visually evaluated. Plant response ratings, summarized in Table C, are based on a scale of 0 to 100 where 0 is no effect and 100 is complete control. A dash (-) response means no test result.

[7] = test system: blackgrass (Alopecurus myosuroides); experiment: Test C postemergence, blackgrass
Description: as §3

[8] = test system: wheat (Triticum aestivum); experiment: Test A postemergence, wheat; conditions: 0 to 100 scale
Summary of the method: as §2

[9] = test system: foxtail, giant (giant foxtail, Setaria faberii); experiment: Test C postemergence, foxtail, giant
Description: as §3

[10] = test system: ryegrass, Italian (Italian ryegrass, Lolium multiflorum); experiment: Test A postemergence, ryegrass, Italian; conditions: 0 to 100 scale
Description: as §1

[11] = test system: foxtail, giant (giant foxtail, Setaria faberii); experiment: Test A postemergence, foxtail, giant; conditions: 0 to 100 scale
Summary of the method: as §2

[12] = test system: oilseed rape (Brassica napus); experiment: Test C postemergence, oilseed rape
Description: as §3

[13] = test system: galium (catchweed bedstraw, Galium aparine); experiment: Test A postemergence, galium; conditions: 0 to 100 scale
Description: as §1

[14] = test system: barnyardgrass (Echinochloa crus-galli); experiment: Test C postemergence, barnyardgrass
Description: as §3

[15] = test system: rice (Oryza sativa); experiment: Test B flooded paddy test, rice; conditions: Flood, 250 g ai/ha; scale of 0 to 100
Summary of the method: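 Paddy-water application at a 3 cm flood, young plants having two leaves. Water level maintained; greenhouse, 13–15 days; visual 0–100 control rating.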

[16] = test system: ragweed (common ragweed, Ambrosia elatior); experiment: Test A preemergence, ragweed; conditions: 0 to 100 scale
Description: as §1

[17] = test system: kochia (Kochia scoparia); experiment: Test C postemergence, kochia
Description: as §3

[18] = test system: waterhemp (common waterhemp, Amaranthus rudis); experiment: Test C postemergence, waterhemp
Description: as §3

[19] = test system: pigweed (Amaranthus retroflexus); experiment: Test A preemergence, pigweed; conditions: 0 to 100 scale
Summary of the method: as §2

In the case of FC(F)c1cc(-c2ncccc2Oc2ncc(Cl)cn2)on1 [Compound 5, 5-chloro-2-[[2-[3-(difluoromethyl)-5-isoxazolyl]-3-pyridinyl]oxy]pyrimidine], the “Plant response rating, Kochia” value ([1]; 31 g ai/ha) is reported as 10, the “Plant response rating, Kochia” value ([1]; 125 g ai/ha) is reported as 80 and the “Plant response rating, Blackgrass” value ([2]; 31 g ai/ha) is reported as 0. For the same compound, the “Plant response rating, Blackgrass” value ([2]; 125 g ai/ha) was 20, the “Plant response rating, Kochia” value ([3]; 31 g ai/ha) was 80 and the “Plant response rating, Kochia” value ([3]; 125 g ai/ha) was 90. For the same compound, the “Plant response rating, Foxtail, Giant” value ([4]; 31 g ai/ha) was 10, the “Plant response rating, Foxtail, Giant” value ([4]; 125 g ai/ha) was 80 and the “Plant response rating, Barnyardgrass” value ([5]; 31 g ai/ha) was 0. The “Plant response rating, Barnyardgrass” value ([5]; 125 g ai/ha) was 20, the “Plant response rating, Chickweed” value ([6]; 16 g ai/ha) was 35 and the “Plant response rating, Chickweed” value ([6]; 31 g ai/ha) was 40. For the same compound, the “Plant response rating, Chickweed” value ([6]; 62 g ai/ha) was 55, the “Plant response rating, Chickweed” value ([6]; 125 g ai/ha) was 60 and the “Plant response rating, Blackgrass” value ([7]; 16 g ai/ha) was 0. For the same compound, the “Plant response rating, Blackgrass” value ([7]; 31 g ai/ha) was 0, the “Plant response rating, Blackgrass” value ([7]; 62 g ai/ha) was 0 and the “Plant response rating, Blackgrass” value ([7]; 125 g ai/ha) was 5. For the same compound, the “Plant response rating, Wheat” value ([8]; 31 g ai/ha) was 0, the “Plant response rating, Wheat” value ([8]; 125 g ai/ha) was 10 and the “Plant response rating, Foxtail, Giant” value ([9]; 16 g ai/ha) was 0. The “Plant response rating, Foxtail, Giant” value ([9]; 31 g ai/ha) was 5, the “Plant response rating, Foxtail, Giant” value ([9]; 62 g ai/ha) was 5 and the “Plant response rating, Foxtail, Giant” value ([9]; 125 g ai/ha) was 10. For the same compound, the “Plant response rating, Ryegrass, Italian” value ([10]; 31 g ai/ha) was 0, the “Plant response rating, Ryegrass, Italian” value ([10]; 125 g ai/ha) was 0 and the “Plant response rating, Foxtail, Giant” value ([11]; 31 g ai/ha) was 0. The “Plant response rating, Foxtail, Giant” value ([11]; 125 g ai/ha) was 10, the “Plant response rating, Oilseed Rape” value ([12]; 16 g ai/ha) was 5 and the “Plant response rating, Oilseed Rape” value ([12]; 31 g ai/ha) was 60. The “Plant response rating, Oilseed Rape” value ([12]; 62 g ai/ha) was 60, the “Plant response rating, Oilseed Rape” value ([12]; 125 g ai/ha) was 85 and the “Plant response rating, Galium” value ([13]; 31 g ai/ha) was 40. For the same compound, the “Plant response rating, Galium” value ([13]; 125 g ai/ha) was 60, the “Plant response rating, Barnyardgrass” value ([14]; 16 g ai/ha) was 0 and the “Plant response rating, Barnyardgrass” value ([14]; 31 g ai/ha) was 0. For the same compound, the “Plant response rating, Barnyardgrass” value ([14]; 62 g ai/ha) was 5, the “Plant response rating, Barnyardgrass” value ([14]; 125 g ai/ha) was 10 and the “Plant response rating, Rice” value [15] was 0. For the same compound, the “Plant response rating, Ragweed” value ([16]; 31 g ai/ha) was 0, the “Plant response rating, Ragweed” value ([16]; 125 g ai/ha) was 10 and the “Plant response rating, Kochia” value ([17]; 16 g ai/ha) was 90. The “Plant response rating, Kochia” value ([17]; 31 g ai/ha) was 90, the “Plant response rating, Kochia” value ([17]; 62 g ai/ha) was 90 and the “Plant response rating, Kochia” value ([17]; 125 g ai/ha) was 90. For the same compound, the “Plant response rating, Waterhemp” value ([18]; 16 g ai/ha) was 60, the “Plant response rating, Waterhemp” value ([18]; 31 g ai/ha) was 65 and the “Plant response rating, Waterhemp” value ([18]; 62 g ai/ha) was 75. For the same compound, the “Plant response rating, Waterhemp” value ([18]; 125 g ai/ha) was 85, the “Plant response rating, Pigweed” value ([19]; 31 g ai/ha) was 80 and the “Plant response rating, Pigweed” value ([19]; 125 g ai/ha) was 100.

Source: patent US11006631B2, “Substituted pyrimidinyloxy pyridine derivatives as herbicides” (FMC Corporation, priority 2015, dated 2021)
